Among the test systems are A549 NSCLC; A498 renal; MDA-MB-435; NCI-H522 lung; 786-0 renal; HS 578T breast; SN12C renal; COLO 205 colon; MALME-3M melanoma; T-47D breast; MDA-MB-231 breast; RPMI-8226 leukemia; NCI/ADR-RES ovarian; OVCAR-5 ovarian; HT29 colon; NCI-H460 lung; SF-539 CNS; OVCAR-3 ovarian; HCT-116 colon; HOP-62 NSCLC.
Test in all cases: NCI anticancer screen, dose series, 48 h

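Protocol summary: plate cells (96-well), add compound at 5 concentrations, incubate 48 h, interpolate endpoints linearly. TGI: concentration producing complete growth inhibition.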

For the compound `COC(=O)/C=C1/OC(c2ccc(Br)cc2)=C(Br)C1=O`, the TGI stood at 33.6 µM with A549 NSCLC; 30.4 µM with A498 renal; 20.9 µM with MDA-MB-435; 10.7 µM in the assay with NCI-H522 lung; 6.31 µM in the assay with 786-0 renal; 28.1 µM in the assay with HS 578T breast. Also, the TGI in the assay with SN12C renal amounted to 17.6 µM; in the assay with COLO 205 colon, 4.12 µM; in the assay on MALME-3M melanoma, 21.5 µM; in the assay on T-47D breast, 15.1 µM; in the assay on MDA-MB-231 breast, 8.17 µM; in the assay on RPMI-8226 leukemia it was 6.06 µM. Besides, the TGI with NCI/ADR-RES ovarian was 32.9 µM; with OVCAR-5 ovarian, 12.5 µM; in the assay with HT29 colon, 11.3 µM; in the assay on NCI-H460 lung it was 36.6 µM; in the assay with SF-539 CNS, 12.7 µM; in the assay on OVCAR-3 ovarian, 9.71 µM. Moreover, the TGI came to 7.75 µM in the assay with HCT-116 colon and 17.5 µM with HOP-62 NSCLC.
For `Cn1c(=O)c2[nH]c(/N=N\n3ccc4ccccc43)nc2n(C)c1=O`, the TGI in the assay with A549 NSCLC, in the assay with A498 renal, with MDA-MB-435, in the assay with NCI-H522 lung, with 786-0 renal and in the assay with HS 578T breast was greater than 100 µM throughout. The TGI with SN12C renal, in the assay with COLO 205 colon, in the assay with MALME-3M melanoma, with T-47D breast, in the assay on MDA-MB-231 breast and in the assay with RPMI-8226 leukemia was greater than 100 µM in each case. Also, the TGI in the assay with NCI/ADR-RES ovarian, with OVCAR-5 ovarian, with HT29 colon, in the assay on NCI-H460 lung, with SF-539 CNS and with OVCAR-3 ovarian was greater than 100 µM each time. Further, the TGI in the assay on HCT-116 colon and in the assay on HOP-62 NSCLC was greater than 100 µM throughout.
In the case of `CCOC(=O)CCC(NC(=O)N1CCN(c2c(C)nc(C)[nH]c2=O)CC1)C(=O)OCC` (stereo not given), the TGI in the assay on A549 NSCLC, with A498 renal, in the assay on MDA-MB-435, in the assay with NCI-H522 lung, in the assay on 786-0 renal and in the assay with HS 578T breast was greater than 100 µM in each case. The TGI with SN12C renal, with COLO 205 colon, in the assay on MALME-3M melanoma, with T-47D breast, in the assay on MDA-MB-231 breast and in the assay on RPMI-8226 leukemia was greater than 100 µM each time. In addition, the TGI in the assay on NCI/ADR-RES ovarian, with OVCAR-5 ovarian, in the assay on HT29 colon, in the assay on NCI-H460 lung, with SF-539 CNS and with OVCAR-3 ovarian was greater than 100 µM in each case. Moreover, the TGI in the assay on HCT-116 colon and in the assay with HOP-62 NSCLC was greater than 100 µM throughout.
Consider `CCOC(=O)C(Cc1ccc(OC(=O)c2ccc(OC)cc2OC)cc1)NC(=O)C(F)(F)F` (stereo not given), for which the TGI in the assay with A549 NSCLC was greater than 100 µM; with A498 renal it was 31.6 µM; in the assay with MDA-MB-435, 34.9 µM; with NCI-H522 lung, 40.9 µM; in the assay with 786-0 renal, 93.6 µM; in the assay on HS 578T breast, 83.5 µM. Also, the TGI in the assay on SN12C renal was greater than 100 µM; with COLO 205 colon it was 43.9 µM; with MALME-3M melanoma, 59.9 µM; in the assay on T-47D breast, 61.6 µM; in the assay with MDA-MB-231 breast, greater than 100 µM; in the assay with RPMI-8226 leukemia, 50.7 µM. Further, the TGI is 79.4 µM in the assay on NCI/ADR-RES ovarian; greater than 100 µM with OVCAR-5 ovarian; 47.1 µM in the assay with HT29 colon; greater than 100 µM in the assay on NCI-H460 lung; 54.4 µM in the assay on SF-539 CNS; 36.9 µM in the assay with OVCAR-3 ovarian. Moreover, the TGI in the assay with HCT-116 colon is greater than 100 µM; with HOP-62 NSCLC, 44.9 µM.
`O=C1OC(C2Cc3cc4c(cc3C2=O)CCC4)c2ccccc21` (stereo not given): the TGI in the assay with A549 NSCLC was greater than 100 µM; in the assay on A498 renal, 61.6 µM; with MDA-MB-435, greater than 100 µM; in the assay with NCI-H522 lung it was greater than 100 µM; in the assay on 786-0 renal, greater than 100 µM; in the assay on HS 578T breast, greater than 100 µM. For the same compound, the TGI in the assay with SN12C renal, with COLO 205 colon, with MALME-3M melanoma, with T-47D breast, in the assay with MDA-MB-231 breast and in the assay on RPMI-8226 leukemia was greater than 100 µM each time. Also, the TGI is greater than 100 µM with NCI/ADR-RES ovarian; greater than 100 µM in the assay on OVCAR-5 ovarian; greater than 100 µM in the assay on HT29 colon; greater than 100 µM with NCI-H460 lung; 80.4 µM in the assay with SF-539 CNS; greater than 100 µM with OVCAR-3 ovarian. Moreover, the TGI with HCT-116 colon and with HOP-62 NSCLC was greater than 100 µM in each case.
For the compound `CC(C)(C)C1CCC2c3c([nH]c4ccccc34)C3C(=O)N(c4cccc(Cl)c4)C(=O)C3C2C1` (stereo not given), the TGI in the assay on A549 NSCLC is greater than 55.8 µM; in the assay on A498 renal, 53.7 µM; in the assay on MDA-MB-435 it was 48.9 µM; with NCI-H522 lung, 34.5 µM; with 786-0 renal, 22 µM; in the assay on HS 578T breast, greater than 68.1 µM. The TGI with SN12C renal is 15.6 µM; in the assay with COLO 205 colon, 35.8 µM; in the assay on MALME-3M melanoma it was 32.4 µM; in the assay on T-47D breast, 48.7 µM; in the assay with MDA-MB-231 breast, 29.6 µM; in the assay on RPMI-8226 leukemia, greater than 72.2 µM. The TGI turned out to be 34 µM in the assay on NCI/ADR-RES ovarian; 30.3 µM in the assay with OVCAR-5 ovarian; 20 µM with HT29 colon; 17.7 µM in the assay on NCI-H460 lung; 35.5 µM with SF-539 CNS; 33.3 µM in the assay with OVCAR-3 ovarian. In addition, the TGI in the assay with HCT-116 colon amounted to 19.3 µM; with HOP-62 NSCLC it was 18 µM.
On to `C/C(=C/CNc1ncnc2c1ncn2CCC(=O)O)CO`, for which the TGI in the assay on A549 NSCLC, in the assay on A498 renal, in the assay with MDA-MB-435, in the assay with NCI-H522 lung, in the assay on 786-0 renal and in the assay with HS 578T breast was greater than 100 µM in each case. Also, the TGI with SN12C renal, in the assay with COLO 205 colon, in the assay on MALME-3M melanoma, with T-47D breast, in the assay on MDA-MB-231 breast and in the assay with RPMI-8226 leukemia was greater than 100 µM each time. Besides, the TGI in the assay on NCI/ADR-RES ovarian, in the assay with OVCAR-5 ovarian, in the assay on HT29 colon, in the assay with NCI-H460 lung, in the assay with SF-539 CNS and in the assay with OVCAR-3 ovarian was greater than 100 µM each time. Also, the TGI in the assay on HCT-116 colon and in the assay with HOP-62 NSCLC was greater than 100 µM throughout.

The values above are taken from PubChem BioAssay (NCI).
